Reference: patent US8163756B2 (priority 2004, dated 2012)

Each compound was assayed against B-Raf(V599E) kinase (Homo sapiens, UniProt P15056, V600E) (assay: B-Raf(V599E) kinase assay B1 (construct 1, MEK1 substrate, coupled spectrophotometric)). Conditions: not given.
Sequence of B-Raf(V599E) kinase (P15056 with tags, fused parts or gaps V600E): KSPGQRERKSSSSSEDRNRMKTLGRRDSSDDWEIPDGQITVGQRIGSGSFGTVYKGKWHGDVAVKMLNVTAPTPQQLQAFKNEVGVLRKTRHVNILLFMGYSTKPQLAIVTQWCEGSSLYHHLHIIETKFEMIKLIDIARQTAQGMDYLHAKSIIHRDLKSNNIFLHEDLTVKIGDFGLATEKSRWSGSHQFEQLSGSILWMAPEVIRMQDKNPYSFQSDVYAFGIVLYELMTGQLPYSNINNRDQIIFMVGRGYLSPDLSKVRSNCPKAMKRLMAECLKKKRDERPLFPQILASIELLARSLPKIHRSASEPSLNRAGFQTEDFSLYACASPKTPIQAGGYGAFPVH
Type: biochemical
Method: The test compounds were incubated with the reaction mixtureat 30° C. for 2 h. […] The reaction rate was calculated using the […] time frame. […] IC50 values were calculated from a series of percent inhibition values determined at a range of inhibitor concentrations using software routines as implemented in the GraphPad Prism software package.
`CC(C)(C)c1cc(NC(=O)Nc2cccc(Cl)c2Cl)n(-c2ccc(C(=O)O)cc2)n1` [Example 244, 4-{3-t-butyl-5-[3-(2,3-dichlorophenyl)ureido]-1H-pyrazol-1-yl}benzoic acid] was tested, and the IC50 was 38 nM. `CC(C)(C)c1cc(NC(=O)Nc2ccc3c(c2)OCO3)n(-c2cccc(CC(N)=O)c2)n1` [Example 395, 1-{1-[3-(2-amino-2-oxoethyl)phenyl]-3-t-butyl-1H-pyrazol-5-yl}-3-(benzo[d][1,3]dioxol-5-yl)urea] was tested, and the IC50 was 50 nM. With `COc1ccc(-n2nc(C(C)(C)C)cc2NC(=O)Nc2cccc(C(F)(F)F)c2)cc1` [Example 238, 1-[3-t-butyl-1-(4-methoxyphenyl)-1H-pyrazol-5-yl]-3-(3-trifluoromethylphenyl)urea] the IC50 was 65 nM. Work on `CC(C)(C)c1cc(NC(=O)NC2CCCCC2)n(-c2cc(CO)c3ccccc3c2)n1` [Example 292, 1-(3-t-butyl-1-(4-(hydroxymethyl)naphthalen-2-yl)-1H-pyrazol-5-yl)-3-cyclohexylurea] yielded an IC50 of 22 nM. `CC(C)(C)c1cc(NC(=O)NC2CCCCC2)n(-c2ccc3c(c2)C(=O)NCC3)n1` [Example 310, 1-(3-t-butyl-1-(1-oxo-1,2,3,4-tetrahydroiso-quinolin-7-yl)-1H-pyrazol-5-yl)-3-cyclohexylurea] showed an IC50 of 98 nM. For `CCOC(=O)c1ccc(-n2nc(C(C)(C)C)cc2NC(=O)Nc2cccc(Cl)c2Cl)cc1` [Example 243, ethyl 4-{3-t-butyl-5-[3-(2,3-dichlorophenyl)ureido]-1H-pyrazol-1-yl}benzoate], the IC50 was 41 nM. `CNCCc1cccc(-n2nc(C(C)(C)C)cc2NC(=O)Nc2cccc(Cl)c2Cl)c1` [Example 258, 1-(3-t-butyl-1-(3-(2-(methylamino)ethyl)phenyl)-1H-pyrazol-5-yl)-3-(2,3-dichlorophenyl)urea] gave an IC50 of 3.4 nM. With `CC(C)(C)c1cc(NC(=O)Nc2ccccc2)n(-c2cc(CN)c3ccccc3c2)n1` [Example 295, 1-[1-(4-(aminomethyl)naphthalen-2-yl)-3-t-butyl-1H-pyrazol-5-yl]-3-phenylurea] the IC50 was 52 nM. `CC(C)(C)c1cc(NC(=O)Nc2ccccc2F)n(-c2cccc(CO)c2)n1` [Example 219, 1-{3-t-butyl-1-[3-(hydroxymethyl)phenyl]-1H-pyrazol-5-yl}-3-(2-fluorophenyl)urea] showed an IC50 of 55 nM. For `COc1cccc(-n2nc(C(C)(C)C)cc2NC(=O)Nc2cccc(Cl)c2)c1` [Example 231, 1-(3-t-butyl-1-(3-methoxyphenyl)-1H-pyrazol-5-yl)-3-(3-chlorophenyl)urea], the IC50 was 27 nM. `CC(C)(C)c1cc(NC(=O)Nc2cccc(F)c2F)n(-c2ccc3c(c2)CCC(=O)N3)n1` [Example 320, 1-(3-t-butyl-1-(2-oxo-1,2,3,4-tetrahydro-quinolin-6-yl)-1H-pyrazol-5-yl)-3-(2,3-difluorophenyl)urea] gave an IC50 of 4.6 nM. With `CC(C)(C)c1cc(NC(=O)Nc2cccc(Cl)c2)n(-c2cccc(CO)c2)n1` [Example 222] the IC50 was 47 nM. In the case of `CC(C)(C)c1cc(NC(=O)Nc2cccc(Oc3ccccc3)c2)n(-c2ccc3c(c2)CCC(=O)N3)n1` [Example 325, 1-(3-t-butyl-1-(2-oxo-1,2,3,4-tetrahydro-quinolin-6-yl)-1H-pyrazol-5-yl)-3-(3-phenoxyphenyl)urea], the IC50 is reported as 4.5 nM. Work on `CC(C)(C)c1cc(NC(=O)Nc2cccc(Oc3ccccc3)c2)n(-c2cccc(CC(N)=O)c2)n1` [Example 433, 1-(1-(3-(2-amino-2-oxoethyl)phenyl)-3-t-butyl-1H-pyrazol-5-yl)-3-(3-phenoxyphenyl)urea] yielded an IC50 of 5.1 nM. With `CC(C)(C)c1cc(NC(=O)Nc2ccc(Cl)cc2)n(-c2cccc(CN3C(=O)C(=O)N(c4ccccc4)C3=O)c2)n1` [Example 269, 1-(3-t-butyl-1-(3-[(2,4,5-trioxo-3-phenylimidazolidin-1-yl)methyl]phenyl}-1H-pyrazol-5-yl)-3-(4-chlorophenyl)urea] the IC50 was 279 nM. Compound `CC(=O)OCc1cccc(-n2nc(C(C)(C)C)cc2NC(=O)Nc2cccc(Cl)c2Cl)c1` [Example 245, 3-(3-t-butyl-5-(3-(2,3-dichlorophenyl)ureido)-1H-pyrazol-1-yl)benzyl acetate] has an IC50 of 5.3 nM. `CC(C)(C)c1cc(NC(=O)Nc2ccc(Cl)cc2)n(-c2ccc3c(c2)C(=O)NCC3)n1` [Example 309, 1-[3-t-butyl-1-(1-oxo-1,2,3,4-tetrahydroiso-quinolin-7-yl)-1H-pyrazol-5-yl]-3-(4-chlorophenyl)urea] was tested, and the IC50 was 249 nM. Work on `CC(C)(C)c1cc(NC(=O)Nc2ccc(F)cc2)n(-c2ccc3c(c2)CCC(=O)N3)n1` [Example 317] yielded an IC50 of 36 nM. In the case of `CC(C)(C)c1cc(NC(=O)Nc2cc(F)c(F)cc2F)n(-c2cccc(CC(=O)O)c2)n1` [Example 370, 2-(3-(3-t-butyl-5-(3-(2,4,5-trifluorophenyl)-ureido)-1H-pyrazol-1-yl)phenyl)acetic acid], the IC50 is reported as 8 nM. For `CC(C)(C)c1cc(NC(=O)Nc2ccc(F)cc2F)n(-c2ccc3c(c2)C(=O)NCC3)n1` [Example 311, 1-(3-t-butyl-1-(1-oxo-1,2,3,4-tetrahydroiso-quinolin-7-yl)-1H-pyrazol-5-yl)-3-(2,4-difluorophenyl)urea], the IC50 was 32 nM. In the case of `CC(C)(C)c1cc(NC(=O)Nc2cc(F)cc(F)c2F)n(-c2ccc3[nH]c(=O)ccc3c2)n1` [Example 331], the IC50 is reported as 3.4 nM. With `CC(C)(C)c1cc(NC(=O)Nc2cccc(Br)c2)n(-c2cccc(CO)c2)n1` [Example 223, 1-{3-t-butyl-1-[3-(hydroxymethyl)phenyl]-1H-pyrazol-5-yl}-3-(3-bromophenyl)urea] the IC50 was 54 nM. Compound `COC(=O)Cc1cc(-n2nc(C(C)(C)C)cc2NC(=O)Nc2ccccc2)cc2ccccc12` [Example 299, {3-[3-t-butyl-5-(3-phenylureido)pyrazol-1-yl]naphthalen-1-yl}acetic acid methyl ester] has an IC50 of 20 nM. In the case of `C[C@H](NC(=O)Nc1cc(C(C)(C)C)nn1-c1cccc(CC(N)=O)c1)c1ccccc1` [Example 392, 1-{1-[3-(2-amino-2-oxoethyl)phenyl]-3-t-butyl-1H-pyrazol-5-yl}-3-((S)-1-phenylethyl)urea], the IC50 is reported as 221 nM. For `CC(C)(C)c1cc(NC(=O)Nc2ccc(F)cc2F)n(-c2ccc3c(c2)CCC(=O)N3)n1` [Example 321, 1-(3-t-butyl-1-(2-oxo-1,2,3,4-tetrahydro-quinolin-6-yl)-1H-pyrazol-5-yl)-3-(2,4-difluorophenyl)urea], the IC50 was 7.2 nM. For `CC(C(=O)O)c1cccc(-n2nc(C(C)(C)C)cc2NC(=O)Nc2cccc(Cl)c2Cl)c1` (centres unmarked) [Example 248, 2-(3-(3-t-butyl-5-(3-(2,3-dichlorophenyl)ureido)-1H-pyrazol-1-yl)phenyl)propanoic acid], the IC50 was 8.1 nM. Work on `CC(C)(C)c1cc(NC(=O)Nc2cc(F)c(F)c(F)c2)n(-c2cc(CC(N)=O)c3ccccc3c2)n1` [Example 92, 1-(1-(4-(2-amino-2-oxoethyl)naphthalen-2-yl)-3-t-butyl-1H-pyrazol-5-yl)-3-(3,4,5-trifluorophenyl)urea] yielded an IC50 of 8.2 nM. `CC(C)(C)c1cc(NC(=O)Nc2cc(F)c(F)c(F)c2)n(-c2ccc3c(c2)CCC(=O)N3)n1` [Example 324, 1-(3-t-butyl-1-(2-oxo-1,2,3,4-tetrahydro-quinolin-6-yl)-1H-pyrazol-5-yl)-3-(3,4,5-trifluorophenyl)urea] showed an IC50 of 17 nM. In the case of `COc1cccc(-n2nc(C(C)(C)C)cc2NC(=O)Nc2ccc3c(c2)OCO3)c1` [Example 234, 1-(benzo[d][1,3]dioxo-5-yl)-3-(3-t-butyl-1-(3-methoxyphenyl)-1H-pyrazol-5-yl)urea], the IC50 is reported as 32 nM. Compound `CC(C)(C)c1cc(NC(=O)Nc2cccc(Cl)c2Cl)n(-c2ccc(C(=N)NO)cc2)n1` [Example 260, 4-{3-t-butyl-5-[3-(2,3-dichlorophenyl)ureido]pyrazol-1-yl}-N-hydroxybenzamidine] has an IC50 of 4 nM. `CC(C)(C)c1cc(NC(=O)Nc2ccc(F)cc2)n(-c2cccc(Cn3c(=O)[nH]n(-c4ccccc4)c3=O)c2)n1` [Example 272, 1-(3-t-butyl-1-{3-[(3,5-dioxo-1-phenyl-1,2,4-triazolidin-4-yl)methyl]phenyl}-1H-pyrazol-5-yl)-3-(4-fluorophenyl)urea] gave an IC50 of 61 nM. `Cc1cc(NC(=O)Nc2cc(C(C)(C)C)nn2-c2ccc3c(c2)C(=O)NCC3)no1` [Example 314, 1-(3-t-butyl-1-(1-oxo-1,2,3,4-tetrahydroiso-quinolin-7-yl)-1H-pyrazol-5-yl)-3-(5-methylisoxazol-3-yl)urea] showed an IC50 of 266 nM. `CC(C)(C)c1cc(NC(=O)Nc2ccc(Cl)cc2)n(-c2cc(CC(=O)O)c3ccccc3c2)n1` [Example 300, (3-{3-t-butyl-5-[3-(4-chlorophenyl)ureido]pyrazol-1-yl}naphthalen-1-yl)acetic acid] gave an IC50 of 9.2 nM. In the case of `CC(C)(C)c1cc(NC(=O)NC2CCCC2)n(-c2cc(CC(N)=O)c3ccccc3c2)n1` [Example 93, 1-(1-(4-(2-amino-2-oxoethyl)naphthalen-2-yl)-3-t-butyl-1H-pyrazol-5-yl)-3-cyclopentylurea], the IC50 is reported as 60 nM. With `CCOC(=O)Cc1cc(-n2nc(C(C)(C)C)cc2NC(=O)Nc2ccc(Cl)cc2)cc2ccccc12` [Example 298, (3-{3-t-butyl-5-[3-(4-chlorophenyl)ureido]pyrazol-1-yl}naphthalen-1-yl)acetic acid ethyl ester] the IC50 was 83 nM. `CC(C)(C)c1cc(NC(=O)Nc2cccc(F)c2)n(-c2ccc3c(c2)CCNCC3)n1` [Example 335, 1-(3-t-butyl-1-(2,3,4,5-tetrahydro-1H-benzo[d]azepin-7-yl)-1 H-pyrazol-5-yl)-3-(3-fluorophenyl)urea] was tested, and the IC50 was 104 nM. For `CC(C)(C)c1cc(NC(=O)Nc2cccc(F)c2F)n(-c2ccc3c(c2)CCN(S(C)(=O)=O)C3)n1` [Example 328, 1-(3-t-butyl-1-(2-(methylsulfonyl)-1,2,3,4-tetrahydroisoquinolin-6-yl)-1H-pyrazol-5-yl)-3-(2,3-difluorophenyl)urea], the IC50 was 25 nM.

Same assay, conditions: Method B1; read-out: B-Raf Data
In the case of `CC(C)(C)c1cc(NC(=O)Nc2cccc(F)c2F)n(-c2cccc(CC(N)=O)c2)n1` [Example 394, 1-{1-[3-(2-amino-2-oxoethyl)phenyl]-3-t-butyl-1H-pyrazol-5-yl}-3-(2,3-difluorophenyl)urea], the IC50 is reported as 8.8 nM.
